Laboratory results published in ChEMBL document CHEMBL1158634, “Towards Gram-positive antivirulence drugs: new inhibitors of Streptococcus agalactiae Stk1” (Bioorg Med Chem Lett, 2010).

Experiment: Inhibition of Streptococcus agalactiae Stk1 preincubated for 30 mins

Structure (SMILES) | IC50 [µM]
Cn1cnc2c(NCCCO)nc(N3CCOCC3)nc21 | 66
Cn1cnc2c(NCCCO)nc(-c3cccc(NC(=O)NCc4ccccc4)c3)nc21 | 7.5
Cc1cccc(NC(=O)Nc2cccc(-c3nc(NCCCO)c4ncn(C)c4n3)c2)c1 | 0.2
CCCNC(=O)Nc1cccc(-c2nc(NCCCO)c3ncn(C)c3n2)c1 | 18
Cn1cnc2c(NCCCO)nc(-c3cccc(NC(=O)Nc4ccc5c(c4)OCO5)c3)nc21 | 0.28
Cn1cnc2c(NCCCO)nc(-c3cccc(NC(=O)Nc4cccc(Cl)c4)c3)nc21 | 0.32
CN(CCCO)c1nc(-c2cccc(NC(=O)Nc3cccc(Cl)c3)c2)nc2c1ncn2C | > 300
Cn1cnc2c(NCCCO)nc(-c3cccc(NC(=O)Nc4cccc(C#N)c4)c3)nc21 | 0.49
Cn1cnc2c(NCCCO)nc(-c3cccc(NC(=O)Nc4ccccc4)c3)nc21 | 1
Cn1cnc2c(NCCCO)nc(NCc3ccccc3)nc21 | 48
Cn1cnc2c(NCCCO)nc(-c3cccc(NC(=O)Nc4cccc(S(C)(=O)=O)c4)c3)nc21 | 0.64
COc1ccc(NC(=O)Nc2cccc(-c3nc(NCCCO)c4ncn(C)c4n3)c2)cc1 | 0.63
Cn1cnc2c(NCCCO)nc(-c3cccc(NC(=O)Nc4cccc(N)c4)c3)nc21 | 0.73
COCCCNc1nc(-c2cccc(NC(=O)Nc3cccc(Cl)c3)c2)nc2c1ncn2C | 0.28
Cn1cnc2c(NCCO)nc(-c3cccc(NC(=O)Nc4cccc(Cl)c4)c3)nc21 | 0.32
Cn1cnc2c(NCCCN)nc(-c3cccc(NC(=O)Nc4cccc(Cl)c4)c3)nc21 | 0.48
Cn1cnc2c(NCCCO)nc(-c3cccc(NC(=O)Nc4cc(Cl)cc(Cl)c4)c3)nc21 | 0.16
OCCCNc1nc(Cl)nc2[nH]cnc12 | > 300
Cn1cnc2c(NCCCO)nc(-c3cccc(NC(=O)Nc4ccsc4)c3)nc21 | 2
CCCNc1nc(-c2cccc(NC(=O)Nc3cccc(Cl)c3)c2)nc2c1ncn2C | 0.3
Cn1cnc2c(N)nc(-c3cccc(NC(=O)Nc4cccc(Cl)c4)c3)nc21 | 1.3
Cn1cnc2c(NCCCO)nc(-c3cccc(NS(C)(=O)=O)c3)nc21 | 15
CC(=O)Nc1cccc(NC(=O)Nc2cccc(-c3nc(NCCCO)c4ncn(C)c4n3)c2)c1 | 0.93

Structure (SMILES) | IC50 [µM]
Cn1cnc2c(NCCCO)nc(-c3cccc(NC(=O)Nc4cccnc4)c3)nc21 | 0.96
Cn1cnc2c(NCCCO)nc(-c3cccc(NC(=O)Nc4ccccc4Cl)c3)nc21 | 16
Cn1cnc2c(NCCCO)nc(-c3cccc(NC(=O)Nc4c(Cl)cccc4Cl)c3)nc21 | 59
CC(=O)Nc1cccc(-c2nc(NCCCO)c3ncn(C)c3n2)c1 | 18
Cn1cnc2c(NCCCO)nc(-c3cccc(C(=O)O)c3)nc21 | 39
Cn1cnc2c(NCCCO)nc(-c3cccc(NC(=O)Nc4ccc(Cl)cc4)c3)nc21 | 1.6
Cn1cnc2c(NCCCO)nc(-c3cccc(NC(N)=O)c3)nc21 | 12
Cn1cnc2c(NCCCO)nc(Cl)nc21 | 66
CCn1cnc2c(NCCCO)nc(Cl)nc21 | 175
CC(C)n1cnc2c(NCCCO)nc(Cl)nc21 | > 300
Cn1cnc2c(NCCCO)nc(-c3ccccc3)nc21 | 12
Cn1cnc2c(NCCCO)nc(-c3cccnc3)nc21 | 34
Cn1cnc2c(NCCCO)nc(N3CCNCC3)nc21 | 110
Cn1cnc2c(NCCCO)nc(-c3cccc(Cl)c3)nc21 | 3
Cn1cnc2c(NCCCO)nc(-c3cccc(-c4ccccc4)c3)nc21 | 4
Cn1cnc2c(NCCCO)nc(-c3cccc(N)c3)nc21 | 13
Cn1cnc2c(NCCCO)nc(Nc3ccccc3)nc21 | 26
Cn1cnc2c(NCCCO)nc(-c3cccc([N+](=O)[O-])c3)nc21 | 3
Cn1cnc2c(NCCCO)nc(-c3cccc(C(F)(F)F)c3)nc21 | 4
Cn1cnc2c(NCCCO)nc(-c3cccc(NS(=O)(=O)Cc4ccccc4)c3)nc21 | 22
Cn1cnc2c(NCCCO)nc(-c3cccc(C(=O)NCCc4cccnc4)c3)nc21 | 38
Cn1cnc2c(NCCCO)nc(-c3cccc(C(=O)N4CCC(c5ccccc5)CC4)c3)nc21 | 174
Cn1cnc2c(NCCCO)nc(-c3cccc(C(=O)NCCCc4ccccc4)c3)nc21 | > 300
